[4sU] = 4-thiouridine

Data set [1] addresses T1, FLAG/HA-tagged RBP IGF2BP1 (Homo sapiens, UniProt Q9NZI8).
T1 construct: expressed in transfected cells; host or cells: Flp-In T-REx HEK293 (Invitrogen), pFRT/TO/FLAG/HA-DEST, doxycycline-induced
In words: UV 365 nm crosslinking of RNA to FLAG/HA-IGF2BP1 in cells cultured with photoreactive nucleoside (IP, 32P-labeling, SDS gel phosphorimaging). It is filed as cell-based. As to conditions: 100 μM photoreactive nucleoside, 365 nm UV. As for the experimental part:
FIG. 1. PURE-CLIP methodology. A Structure of photoreactive nucleosides. B Incorporation of photoreactive nucleosides to enable UV 365 nm crosslinking of RNA to RNA-binding IGF2BP1 protein. Upper panels show phosphorimages of SDS protein gels resolving 5′-32P-labeled RNA-FLAG/HA-IGF2BP1 immunoprecipitates (IPs) prepared from lysates from cells that were cultured in media in the absence or presence of 100 μM photoreactive nucleoside for 12 hrs and crosslinked with 365 nm UV. For comparison, a sample prepared from cells crosslinked at 254 nm, was included. Lower panels show immunoblots probed with an anti-HA antibody confirming uniform gel loading. C Illustration of the method. […]
Incorporation of modified photoreactive nucleoside analogues into RNA facilitates UV crosslinking to RBPs (Meisenheimer and Koch, 1997), as shown previously for in vitro transcribed site-specifically labeled RNAs (Kirino and Mourelatos, 2008; Moore and Query, 1998). Several of these photoreactive nucleosides are excitable by longer wavelength UV (>300 nm) and are readily taken up by cells, where they are incorporated into nascent transcripts without noticeable toxicity and then can be used for in vivo crosslinking (Bezerra and Favre, 1990; Favre et al., 1986; Wagenmakers et al., 1980). […]

Data set [2] has as its system cells. As to conditions: exposure longer than 24 hrs in culture medium; cited from earlier work.
In data set [3] the target is T2, recombinant His6-QKI protein (Homo sapiens, UniProt Q96PU8).
T2 construct: His6 (N); made in house; host or cells: E. coli STAR(DE3)
T2 sequence (Q96PU8 1-319 isoform Q96PU8-9): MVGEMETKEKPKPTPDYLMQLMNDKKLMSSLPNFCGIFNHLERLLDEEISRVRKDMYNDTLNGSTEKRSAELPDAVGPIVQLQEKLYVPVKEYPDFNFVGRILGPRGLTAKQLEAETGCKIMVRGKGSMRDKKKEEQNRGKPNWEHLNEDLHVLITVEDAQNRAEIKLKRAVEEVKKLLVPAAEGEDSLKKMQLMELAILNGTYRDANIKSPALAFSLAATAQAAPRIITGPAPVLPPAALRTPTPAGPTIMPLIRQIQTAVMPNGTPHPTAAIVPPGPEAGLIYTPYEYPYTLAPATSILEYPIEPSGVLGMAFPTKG
Briefly: Electrophoretic mobility shift assay (gel-shift) with recombinant QKI. It is filed as binding. The procedure: FIG. 11: Electrophoretic mobility shift assay (EMSA) to analyze binding of recombinant QKI to synthetic oligoribonucleotides with a sequence derived from a cluster identified by QKI PURE-CLIP. […] C Mutation of either one of the QKI binding sites (marked with red bars in the RNA-sequence) results in decreased affinity of QKI to the RNA. Mutation of both binding sites leads to complete loss of affinity of QKI to the RNA.
Radiolabeled RNA (1 nM) was incubated with recombinant His6-QKI protein at various concentrations and 100 ng tRNA in 20 μl of 20 mM HEPES-KOH, pH 7.4, 330 mM KCl, 10 mM MgCl2, 0.1 mM EDTA and 0.01% IGEPAL CA630 (Sigma). After addition of 6 μl loading dye (40% glycerol, bromophenol blue in binding buffer), the solution was loaded onto a native 10% acrylamide gel containing 0.5×TBE, running at 200 V for 2 h at room temperature, using 0.5×TBE as running buffer. The protein-bound RNA and the free RNA were quantified using a phosphorimager.

Data set [4] addresses T3, recombinant QKI protein (Homo sapiens, UniProt Q96PU8).
T3 construct: His6 (N); made in house; host or cells: E. coli STAR(DE3)
T3 sequence (Q96PU8 1-319 isoform Q96PU8-9): T2 sequence (Q96PU8 1-319 isoform Q96PU8-9)
In words: UV 365 nm crosslinking of synthetic 4SU-containing oligoribonucleotides to recombinant QKI. As to conditions: 4SU at position 2 vs position 3 of the recognition element. In kind it is biochemical. The source says:
FIG. 3. RNA recognition sites of QKI protein. A Domain structure of QKI protein. B Phosphorimage of SDS polyacrylamide gel resolving radiolabeled RNA crosslinked to FLAG/HA-QKI IPs from non-irradiated or UV-irradiated 4SU-labeled cells. […] C Two alignments of PURE-CLIP cDNA sequence reads to the corresponding regions of the 3′UTRs of the Refseq CTNNB1 and HOXD13 transcripts, respectively. Red bars indicate the QKI recognition motif and red-letter nucleotides indicate T to C sequence changes. D Weblogo of the QKI recognition motif generated by PhyloGibbs analysis of the top 100 sequence read clusters. […] F Sequences of synthetic 4SU-labeled oligoribonucleotides with QKI recognition motifs, derived from a sequence read cluster aligning to the 3′UTR of HOXD13 (see c). […]
To better understand the […] sequence conversion after sequencing of crosslinked RNA segments, we subjected synthetic 4SU-containing oligoribonucleotides together with recombinant QKI to UV 365 nm crosslinking (FIGS. 3F, G). […] RNA-binding to recombinant QKI protein was unaffected by 4SU incorporation at U9 or U10 as determined by gel-shift analysis (FIG. 11A-B), whereas regular mutation of the recognition element weakened the binding (FIG. 11C). […]

For data set [5], the system named is transcripts containing miR-7- or miR-124-specific CCRs. Briefly: miR-7 and miR-124 duplex transfection into HEK293 cells, mRNA stability by Affymetrix microarrays. It is filed as cell-based, human. As to conditions: HEK293 cells stably expressing FLAG/HA-AGO2. The source says: To allow for a comparison to such studies, we transfected miRNA duplexes corresponding to the deeply conserved miR-7 and miR-124 into HEK293 cells stably expressing FLAG/HA-AGO2 and performed PURE-CLIP. Before transfection, these miRNAs were only present in trace amounts in HEK293 cells, less than 0.2% of total miRNA abundance. We found 1,866 unique sequence read clusters in the miR-7 and 10,929 in the miR-124 transfection experiments. The CCRs isolated from miR-7 and miR-124 transfection experiments were enriched for the seed sequences of the transfected miRNA duplexes. These CCRs were predominantly exonic (87 and 88%, respectively), 28% mapped to the CDS, 57 and 59%, respectively, to the 3′UTR of mRNAs and only 3 and 2%, respectively, to the 5′UTR. miR-7 and miR-124 binding sites that were located in the CDS for miR-7 and -124 were also embedded in regions with unusual codon bias, similar to the binding sites of endogenous miRNA target sites (FIG. 31).
The change in mRNA stability was analyzed after miRNA duplex transfection by Affymetrix whole genome microarrays (Hausser et al., submitted). We observed that transcripts containing miR-7- or miR-124-specific CCRs were destabilized upon miRNA delivery, especially for transcripts with CCRs located in the 3′UTR (FIG. 32-33). […]

T1 sequence (Q9NZI8 whole entry): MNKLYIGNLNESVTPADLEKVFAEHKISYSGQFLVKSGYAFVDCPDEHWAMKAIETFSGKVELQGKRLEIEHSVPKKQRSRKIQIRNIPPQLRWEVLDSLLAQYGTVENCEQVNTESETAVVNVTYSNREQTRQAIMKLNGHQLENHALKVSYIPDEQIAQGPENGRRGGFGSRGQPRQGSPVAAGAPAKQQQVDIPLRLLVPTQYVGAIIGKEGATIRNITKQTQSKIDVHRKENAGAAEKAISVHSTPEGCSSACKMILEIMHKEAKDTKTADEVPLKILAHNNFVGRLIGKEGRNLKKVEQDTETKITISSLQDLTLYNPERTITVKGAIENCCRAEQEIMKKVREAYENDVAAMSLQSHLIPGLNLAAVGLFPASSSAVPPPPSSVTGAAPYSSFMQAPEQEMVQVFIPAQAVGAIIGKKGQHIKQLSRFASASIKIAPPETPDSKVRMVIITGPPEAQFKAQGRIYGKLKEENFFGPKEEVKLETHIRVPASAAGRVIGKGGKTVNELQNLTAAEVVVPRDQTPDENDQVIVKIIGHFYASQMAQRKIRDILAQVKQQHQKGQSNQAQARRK

For the compound `O=c1[nH]c(=S)ccn1[C@@H]1O[C@H](CO)[C@@H](O)[C@H]1O` [4SU, 4-thiouridine], the “crosslinking efficiency of nucleoside-labeled RNA to IGF2BP1” value in data set [1] is reported as “crosslinked most efficiently”. Turning to `Nc1nc2c(ncn2[C@@H]2O[C@H](CO)[C@@H](O)[C@H]2O)c(=S)[nH]1` [6SG, 6-thioguanosine], in data set [2], the “concentration above which cytotoxicity is noticeable” value is listed as “above 100 μM”. As to “U9: synthetic oligoribonucleotide with 4SU at position 2 of the QKI recognition element; GUAUGCCA(4sU)AACAAAUUCAUUAACAA (SEQ ID NO: 30) (GUAUGCCAUAACAAAUUCAUUAACAA; RNA, [4sU] at 9, backbone not given here)”, the “RNA-binding / affinity to recombinant QKI by gel-shift analysis” value in data set [3] is on record as “unaffected”. Besides, the “crosslinking efficiency to recombinant QKI relative to oligonucleotide U10” value in data set [4] is reported as “approximately 50 times”. Regarding “miR-7: transfected miRNA duplex, 5'-UGGAAGACUAGUGAUUUUGUUGU / 5'-CAACAAAUCACAGUCUGCCAUA (SEQ ID NO: 66, 67) (listed as RNA, chemistry not given here)”, the “change in mRNA stability of CCR-containing transcripts after miRNA duplex transfection” value in data set [5] is listed as “destabilized”.
